Test results taken from patent US10590140B2, “Tetrahydropyrimidodiazepine and dihydropyridodiazepine compounds for treating pain and pain related conditions” (ESTEVE PHARMACEUTICALS, S.A., priority 2016, dated 2020).
Read-outs that look alike come from different tables or passages of the source.

Molecular target: human α2δ-1 subunit of Cav2.2 calcium channel (Homo sapiens (Human), UniProt P54289)
Assay: Binding assay to human α2δ-1 subunit of Cav2.2 calcium channel ([3H]-Gabapentin)
Protocol: Binding Assay to Human α2δ-1 Subunit of Cav2.2 Calcium Channel.
NSB (non specific binding) was measured by adding 10 μM pregabalin. After 60 min incubation at 27° C., binding reaction was terminated by filtering through Multiscreen GF/C (Millipore) presoaked in 0.5% polyethyleneimine in Vacuum Manifold Station, followed by 3 washes with ice-cold filtration buffer containing 50 mM Tris-HCl, pH 7.4.
Filter plates were dried at 60° C. for 1 hour and 30 μl of scintillation cocktail were added to each well before radioactivity reading.

[1] = binding to α2δ-1, [3H]-Gabapentin, read-out: Ki (nM) α2δ-1

human α2δ-1 subunit of Cav2.2 calcium channel, sequence (P54289 25-1103): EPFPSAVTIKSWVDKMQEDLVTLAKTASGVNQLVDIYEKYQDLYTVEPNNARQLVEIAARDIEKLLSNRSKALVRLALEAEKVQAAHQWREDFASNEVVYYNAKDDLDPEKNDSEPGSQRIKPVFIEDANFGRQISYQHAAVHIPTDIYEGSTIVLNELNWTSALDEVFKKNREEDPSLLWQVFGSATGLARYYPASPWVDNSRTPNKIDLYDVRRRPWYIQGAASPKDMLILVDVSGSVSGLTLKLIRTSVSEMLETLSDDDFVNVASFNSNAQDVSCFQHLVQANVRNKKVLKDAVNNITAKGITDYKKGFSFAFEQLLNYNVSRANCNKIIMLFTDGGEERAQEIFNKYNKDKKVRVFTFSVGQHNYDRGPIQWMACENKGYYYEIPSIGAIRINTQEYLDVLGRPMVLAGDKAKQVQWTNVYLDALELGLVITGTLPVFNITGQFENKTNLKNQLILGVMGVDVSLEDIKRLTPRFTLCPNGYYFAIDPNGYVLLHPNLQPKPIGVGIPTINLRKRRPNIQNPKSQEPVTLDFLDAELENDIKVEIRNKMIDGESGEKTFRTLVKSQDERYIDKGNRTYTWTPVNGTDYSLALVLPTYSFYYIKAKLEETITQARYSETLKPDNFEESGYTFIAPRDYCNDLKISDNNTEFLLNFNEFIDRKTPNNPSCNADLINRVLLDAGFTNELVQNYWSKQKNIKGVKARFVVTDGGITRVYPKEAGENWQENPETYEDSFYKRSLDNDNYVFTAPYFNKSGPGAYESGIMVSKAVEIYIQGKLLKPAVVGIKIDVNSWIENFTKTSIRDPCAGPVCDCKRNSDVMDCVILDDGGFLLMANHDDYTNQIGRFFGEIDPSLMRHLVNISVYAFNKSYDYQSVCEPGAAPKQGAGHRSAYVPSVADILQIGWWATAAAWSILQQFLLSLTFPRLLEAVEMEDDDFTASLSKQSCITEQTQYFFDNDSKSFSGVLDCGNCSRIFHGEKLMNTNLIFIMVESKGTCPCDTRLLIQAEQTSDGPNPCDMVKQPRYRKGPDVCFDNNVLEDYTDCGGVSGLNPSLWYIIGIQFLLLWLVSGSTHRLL

| SMILES | Ki [1] | also measured |
| --- | --- | --- |
| CCNc1ncc2c(n1)N(C)CCN(c1cccc(CO[C@@H](CCNC)c3cccs3)c1)C2=O (stereo in doubt) [Example 213] |  | Ki: 500 to 3000 nM; Ki (read-out: Ki (nM) α2δ-1, Table 2, dual compounds, [3H]-Gabapentin binding): 500 to 3000 nM |
| CSc1ncc2c(n1)N(C)CCN(c1cccc(OC(CCN(C)C(=O)OC(C)(C)C)c3ccccc3)c1)C2=O (stereo not shown) [Example 1, tert-Butyl methyl(3-(3-(9-methyl-2-(methylthio)-5-oxo-5,7,8,9-tetrahydro-6H-pyrimido[4,5-e][1,4]diazepin-6-yl)phenoxy)-3-phenylpropyl) carbamate] | > 3000 nM |  |
| CSc1ncc2c(n1)N(C)CCN(c1cccc(O[C@H](CCN(C)C(=O)OC(C)(C)C)c3ccccc3)c1)C2=O [Example 2, tert-butyl (R)-methyl(3-(3-(9-methyl-2-(methylthio)-5-oxo-5,7,8,9-tetrahydro-6H-pyrimido[4,5-e][1,4]diazepin-6-yl)phenoxy)-3-phenylpropyl) carbamate] | > 3000 nM |  |
| CSc1ncc2c(n1)N(C)CCN(c1cccc(O[C@@H](CCN(C)C(=O)OC(C)(C)C)c3ccccc3)c1)C2=O [Example 3, tert-butyl (S)-methyl(3-(3-(9-methyl-2-(methylthio)-5-oxo-5,7,8,9-tetrahydro-6H-pyrimido[4,5-e][1,4]diazepin-6-yl)phenoxy)-3-phenylpropyl) carbamate] | > 3000 nM |  |
| CSc1ncc2c(n1)N(C)CCN(c1cccc(OC(CN(C)C(=O)OC(C)(C)C)c3ccccc3)c1)C2=O (stereo not shown) [Example 4, tert-butyl methyl(2-(3-(9-methyl-2-(methylthio)-5-oxo-5,7,8,9-tetrahydro-6H-pyrimido[4,5-e][1,4]diazepin-6-yl)phenoxy)-2-phenylethyl) carbamate] | > 3000 nM |  |
| CSc1ncc2c(n1)N(C)CCN(c1cccc(OC(CNC(=O)OC(C)(C)C)c3ccccc3)c1)C2=O (stereo not shown) [Example 5, tert-butyl (2-(3-(9-methyl-2-(methylthio)-5-oxo-5,7,8,9-tetrahydro-6H-pyrimido[4,5-e][1,4]diazepin-6-yl)phenoxy)-2-phenylethyl) carbamate] | > 3000 nM |  |
| CSc1ncc2c(n1)N(C)CCN(c1cccc(OC(C)CN(C)C(=O)OC(C)(C)C)c1)C2=O (stereo not shown) [Example 6, tert-butyl methyl(2-(3-(9-methyl-2-(methylthio)-5-oxo-5,7,8,9-tetrahydro-6H-pyrimido[4,5-e][1,4]diazepin-6-yl)phenoxy)propyl) carbamate] | > 3000 nM |  |
| CSc1ncc2c(n1)N(C)CCN(c1cccc(OC(CN(C)C(=O)OC(C)(C)C)C(C)C)c1)C2=O (stereo not shown) [Example 7, tert-butyl methyl(3-methyl-2-(3-(9-methyl-2-(methylthio)-5-oxo-5,7,8,9-tetrahydro-6H-pyrimido[4,5-e][1,4]diazepin-6-yl)phenoxy)butyl) carbamate] | > 3000 nM |  |
| CSc1ncc2c(n1)N(C)CCN(c1ccc(OC(CN(C)C(=O)OC(C)(C)C)c3ccccc3)cc1)C2=O (stereo not shown) [Example 8, tert-butyl methyl(2-(4-(9-methyl-2-(methylthio)-5-oxo-5,7,8,9-tetrahydro-6H-pyrimido[4,5-e][1,4]diazepin-6-yl)phenoxy)-2-phenylethyl) carbamate] | > 3000 nM |  |
| CSc1ncc2c(n1)N(C)CCN(c1cccc(COC(CCN(C)C(=O)OC(C)(C)C)c3ccccc3)c1)C2=O (stereo not shown) [Example 9, tert-butyl methyl(3-((3-(9-methyl-2-(methylthio)-5-oxo-5,7,8,9-tetrahydro-6H-pyrimido[4,5-e][1,4]diazepin-6-yl)benzyl)oxy)-3-phenylpropyl) carbamate] | > 3000 nM |  |
| CSc1ncc2c(n1)N(C)CCN(c1cccc(CO[C@H](CCN(C)C(=O)OC(C)(C)C)c3ccccc3)c1)C2=O [Example 10, tert-butyl (R)-methyl(3-((3-(9-methyl-2-(methylthio)-5-oxo-5,7,8,9-tetrahydro-6H-pyrimido[4,5-e][1,4]diazepin-6-yl)benzyl)oxy)-3-phenylpropyl) carbamate] | > 3000 nM |  |
| CSc1ncc2c(n1)N(C)CCN(c1cccc(CO[C@@H](CCN(C)C(=O)OC(C)(C)C)c3ccccc3)c1)C2=O [Example 11, tert-butyl (S)-methyl(3-((3-(9-methyl-2-(methylthio)-5-oxo-5,7,8,9-tetrahydro-6H-pyrimido[4,5-e][1,4]diazepin-6-yl)benzyl)oxy)-3-phenylpropyl) carbamate] | > 3000 nM |  |
| CSc1ncc2c(n1)N(C)CCN(c1cccc(OC(CCN(C)C(=O)OC(C)(C)C)c3cccs3)c1)C2=O (stereo not shown) [Example 12, tert-butyl methyl(3-(3-(9-methyl-2-(methylthio)-5-oxo-5,7,8,9-tetrahydro-6H-pyrimido[4,5-e][1,4]diazepin-6-yl)phenoxy)-3-(thiophen-2-yl)propyl) carbamate] | > 3000 nM |  |
| CSc1ncc2c(n1)N(C)CCN(c1cccc(O[C@H](CCN(C)C(=O)OC(C)(C)C)c3cccs3)c1)C2=O [Example 13, tert-butyl (R)-methyl(3-(3-(9-methyl-2-(methylthio)-5-oxo-5,7,8,9-tetrahydro-6H-pyrimido[4,5-e] [1,4]diazepin-6-yl)phenoxy)-3-(thiophen-2-yl)propyl) carbamate] | > 3000 nM |  |
| CSc1ncc2c(n1)N(C)CCN(c1cccc(O[C@@H](CCN(C)C(=O)OC(C)(C)C)c3cccs3)c1)C2=O [Example 14, tert-butyl (S)-methyl(3-(3-(9-methyl-2-(methylthio)-5-oxo-5,7,8,9-tetrahydro-6H-pyrimido[4,5-e][1,4]diazepin-6-yl)phenoxy)-3-(thiophen-2-yl)propyl) carbamate] | > 3000 nM |  |
| CSc1ncc2c(n1)N(C)CCN(c1cccc(COC(CCN(C)C(=O)OC(C)(C)C)c3cccs3)c1)C2=O (stereo not shown) [Example 15, tert-butyl methyl(3-((3-(9-methyl-2-(methylthio)-5-oxo-5,7,8,9-tetrahydro-6H-pyrimido[4,5-e][1,4]diazepin-6-yl)benzyl)oxy)-3-(thiophen-2-yl)propyl) carbamate] | > 3000 nM |  |
| CSc1ncc2c(n1)N(C)CCN(c1cccc(CO[C@H](CCN(C)C(=O)OC(C)(C)C)c3cccs3)c1)C2=O [Example 16, tert-butyl (R)-methyl(3-((3-(9-methyl-2-(methylthio)-5-oxo-5,7,8,9-tetrahydro-6H-pyrimido[4,5-e][1,4]diazepin-6-yl)benzyl)oxy)-3-(thiophen-2-yl)propyl) carbamate] | > 3000 nM |  |
| CSc1ncc2c(n1)N(C)CCN(c1cccc(CO[C@@H](CCN(C)C(=O)OC(C)(C)C)c3cccs3)c1)C2=O [Example 17, tert-butyl (S)-methyl(3-((3-(9-methyl-2-(methylthio)-5-oxo-5,7,8,9-tetrahydro-6H-pyrimido[4,5-e][1,4]diazepin-6-yl)benzyl)oxy)-3-(thiophen-2-yl)propyl) carbamate] | > 3000 nM |  |
| CSc1ncc2c(n1)N(C)CCN(c1cccc(COCC(c3ccccc3)N(C)C(=O)OC(C)(C)C)c1)C2=O (stereo not shown) [Example 18, tert-butyl methyl(2-((3-(9-methyl-2-(methylthio)-5-oxo-5,7,8,9-tetrahydro-6H-pyrimido[4,5-e][1,4]diazepin-6-yl)benzyl)oxy)-1-phenylethyl) carbamate] | > 3000 nM |  |
| CSc1ncc2c(n1)N(C)CCN(c1cccc(COC(CN(C)C(=O)OCC[Si](C)(C)C)c3ccccc3)c1)C2=O (stereo not shown) [Example 19, 2-(trimethyl-silyl)ethyl methyl(2-((3-(9-methyl-2-(methylthio)-5-oxo-5,7,8,9-tetrahydro-6H-pyrimido[4,5-e][1,4]diazepin-6-yl)benzyl)oxy)-2-phenylethyl) carbamate] | > 3000 nM |  |
| CSc1ncc2c(n1)N(C)CCN(c1cccc(OCCCN(C)C(=O)OC(C)(C)C)c1)C2=O [Example 20, tert-butyl methyl(3-(3-(9-methyl-2-(methylthio)-5-oxo-5,7,8,9-tetrahydro-6H-pyrimido[4,5-e][1,4]diazepin-6-yl)phenoxy)propyl) carbamate] | > 3000 nM |  |
| CSc1ncc2c(n1)N(C)CCN(c1cccc(OCCCN(Cc3ccccc3)C(=O)OC(C)(C)C)c1)C2=O [Example 21, tert-butyl benzyl(3-(3-(9-methyl-2-(methylthio)-5-oxo-5,7,8,9-tetrahydro-6H-pyrimido[4,5-e][1,4]diazepin-6-yl)phenoxy)propyl) carbamate] | > 3000 nM |  |
| CSc1ncc2c(n1)N(C)CCN(c1cccc(OCCN(C)C(=O)OC(C)(C)C)c1)C2=O [Example 22, tert-butyl methyl(2-(3-(9-methyl-2-(methylthio)-5-oxo-5,7,8,9-tetrahydro-6H-pyrimido[4,5-e][1,4]diazepin-6-yl)phenoxy)ethyl) carbamate] | > 3000 nM |  |
| CSc1ncc2c(n1)N(C)CCN(c1cccc(CCCN(C)C(=O)OC(C)(C)C)c1)C2=O [Example 23, tert-butyl methyl(3-(3-(9-methyl-2-(methylthio)-5-oxo-5,7,8,9-tetrahydro-6H-pyrimido[4,5-e][1,4]diazepin-6-yl)phenyl)propyl) carbamate] | > 3000 nM |  |
| CSc1ncc2c(n1)N(C)CCN(c1cccc(CCN(C)C(=O)OC(C)(C)C)c1)C2=O [Example 24, tert-butyl methyl(3-(9-methyl-2-(methylthio)-5-oxo-5,7,8,9-tetrahydro-6H-pyrimido[4,5-e][1,4]diazepin-6-yl)phenethyl) carbamate] | > 3000 nM |  |
| CSc1ncc2c(n1)N(C)CCN(c1cccc(C(C)(C)CN(C)C(=O)OC(C)(C)C)c1)C2=O [Example 25, tert-butyl methyl(2-methyl-2-(3-(9-methyl-2-(methylthio)-5-oxo-5,7,8,9-tetrahydro-6H-pyrimido[4,5-e][1,4]diazepin-6-yl)phenyl)propyl) carbamate] | > 3000 nM |  |
| CSc1ncc2c(n1)N(C)CCN(c1cccc(CN(C)C(=O)OC(C)(C)C)c1)C2=O [Example 26, tert-butyl methyl(3-(9-methyl-2-(methylthio)-5-oxo-5,7,8,9-tetrahydro-6H-pyrimido[4,5-e][1,4]diazepin-6-yl)benzyl) carbamate] | > 3000 nM |  |
